From patent publication US20230414611A1, “REFINED USES OF GABA A RECEPTOR MODULATORS IN TREATMENT OF FRAGILE X SYNDROME” (CHILDREN'S HOSPITAL MEDICAL CENTER, priority 2020, published 2023)
Entries after “also recorded” stand apart in the source; their conditions may differ.

Tests used:
Assay type in all cases: in vivo, human
[1] = test system: adults with Fragile X Syndrome (FXS); assay: RBANS list learning in AZD7325 clinical study; design: key to RBANS list learning, difference of least squares means, Estimate: Low - High / RBANS list learning, difference of least squares means, Estimate: Baseline - High: difference in raw score (number of words remembered); settings: for RBANS_LL change: chronic
[2] = test system: adults with Fragile X Syndrome (FXS); assay: Aberrant Behavior Checklist (ABC / ABC-C subscales); settings: for ABC_C_Subscale_1 Irritability / ABC_C_Subscale_2 Lethargy / ABC_C_Subscale_3 Stereotypy / ABC_C_Subscale_4 Hyperactivity / ABC_C_Subscale_5 Inappropriate Speech: undetectable FMRP males (n=5), mean ± SD
Excerpt: Secondary Outcome Measures: • Change in the social withdrawal subscale score of the Aberrant Behavior Checklist (ABC) through the end of the study, approximately 12 weeks. The ABC is the gold standard parent/caregiver reported behavioral outcome measure for use in development disability clinical trials. • Change in the Pediatric Anxiety Rating Scale (PARS) through the end of the study, approximately 12 weeks. The PARS is the gold standard parent/caregiver reported anxiety outcome measure for use in Fragile X Syndrome clinical trials.
The Aberrant Behavior Checklist (ABC) is a standardized rating scale used for assessing problematic behavior designed for use in developmental disabilities, with validity for use in FXS (CITE). ABC-C is the original factor structure with 5 subscales: Irritability, Lethargy, Stereotypy, Hyperactivity, and Inappropriate Speech. See, e.g., Aman et al., J. Child Adolesc Psychopharmacol. 30(8):512-521 (2020), the relevant disclosures of which are incorporated by reference for the subject matter and purpose referenced herein. ABC was only assessed chronically (two weeks after treatment). Overall, no indication that ABC changed during chronic phase.

[3] = test system: adults with Fragile X Syndrome (FXS); assay: WJ auditory attention; settings: FMRP-present male patients
[4] = test system: adults with Fragile X Syndrome (FXS); assay: RBANS list learning in AZD7325 clinical study; design: key to RBANS list learning, difference of least squares means, Estimate: Baseline - Low: difference in raw score (number of words remembered); key to RBANS-LL score: raw score = number of words remembered; higher is better; settings: for RBANS-LL score: undetectable FMRP male subjects (n=5), mean ± SD
Excerpt: This study aims at investigating the safety, tolerability, and blood pharmacodynamics of treatment with oral administration of AZD7325 in adults with Fragile X Syndrome (FXS). This study also investigates measures of efficacy and biomarkers during treatment.
The treatment conditions are provided Table 2 below:
Table 5 below summarizes clinical measure RBANS List Learning scores from the 5 “undetectable” FMRP male subjects. RBANS List Learning is a verbal working memory task and raw scores provided indicate number of words remembered, with higher scores indicating more number of words remembered. Group average and standard deviation were obtained cross subjects per treatment type (Placebo/Low dose/High dose) and per visit, which are 1) baseline: before intake, 2) acute: after the first dosage, and 3) chronic: post 2-week daily dosage. Higher scores are clinically better.

[5] = test system: adults with Fragile X Syndrome (FXS); assay: EEG relative band power
Excerpt: Brain cells communicate via electrical impulses and are active all the time, even a subject is asleep. Electroencephalogram (EEG) detects the electrical activity in the brain. EEG can measure alpha waves, beta waves, and gamma waves. FXS patients typically show low alpha (Alpha waves are involved in higher level, complex cognition) and elevated gamma (representing noise, excessive synaptic connectivity-brain cells over connecting). Gamma activations represent high frequency brain rhythms, which may coincide with functional brain activity and/or muscular activity.
EEG statistical analysis strategies used in this study include: (a) electrode-specific relative band power estimation; (b) applying crossover-trial modeling to validate the absence of period effect; and (c) testing the within-subject relative power change per condition (i.e., determining impact of AZD7325 on gamma power in a treated patient).

[6] = subgroup of males (outlier removed), high dose 15 mg twice per day oral
[7] = subgroup of males (outlier removed), low dose 5 mg twice per day oral
[8] = Placebo vs High dose, acute visit, FMRP undetectable subjects (n = 5)
[9] = Placebo vs High dose, acute visit, male subjects (n = 9)
[10] = Placebo vs High dose, chronic visit, FMRP undetectable subjects (n = 5)
[11] = Placebo vs High dose, chronic visit, all subjects (n = 12)
[12] = Placebo vs High dose, chronic visit, male subjects (n = 9)
[13] = Placebo vs Low dose, acute visit, all subjects (n = 12)
[14] = Placebo vs Low dose, acute visit, male subjects (n = 9)
[15] = Placebo vs Low dose, chronic visit, FMRP undetectable subjects (n = 5)
[16] = Placebo vs Low dose, chronic visit, all subjects (n = 12)
[17] = Placebo vs Low dose, chronic visit, male subjects (n = 9)
[18] = high dose relative to low dose, acute, male patients
[19] = high dose relative to low dose, acute, peripheral FMRP nondetectable patients
[20] = high dose relative to low dose, chronic, all patients
[21] = high dose relative to low dose, chronic, male patients
[22] = high dose relative to low dose, chronic, peripheral FMRP nondetectable patients
[23] = low dose vs placebo, chronic, male detectable FMRP group

Compound: CCCNC(=O)c1nnc2c(-c3c(F)cccc3OC)cccc2c1N [AZD7325, 4-amino-8-(2-fluoro-6-methoxyphenyl)-N-propylcinnoline-3-carboxamide]
- effect of drug on RBANS list learning ([1]; all eligible subjects (p=0.09)): trending effect
- RBANS_LL change ([1]; low dose, female detectable FMRP subjects): improves RBANS growth in 2 of the three female detectable subjects
- RBANS_LL change ([1]; low dose, male detectable FMRP subjects): bi-directional distributed and overlap with placebo
- effect on RBANS list learning ([1]; low dose, subgroup of males following removal of an outlier): significant beneficial effect
- RBANS list learning, difference of least squares means, Estimate: Baseline - High [1, 6]: 2.09
- RBANS list learning, difference of least squares means, Estimate: Placebo - High [1, 6]: 0.84
- RBANS list learning, difference of least squares means, Estimate: Placebo - Low [1, 7]: −4.00
- RBANS list learning, difference of least squares means, Estimate: Low - High ([1]; subgroup of males (outlier removed), low dose vs high dose): 4.84
- ABC lethargy and social withdrawal ([2]; low dose, patients having detectable peripheral FMRP): increases
- ABC lethargy and social withdrawal ([2]; low dose, patients having undetectable peripheral FMRP): reduction; also recorded: reduces
- ABC irritability ([2]; low dose, regardless of FMRP status (trending), baseline to chronic): reduction; also recorded: reduces
- ABC_C_Subscale_1 Irritability ([2]; high dose, baseline): 7.6 ± 7.44
- ABC_C_Subscale_2 Lethargy ([2]; high dose, baseline): 3.2 ± 3.11
- ABC_C_Subscale_3 Stereotypy ([2]; high dose, baseline): 5.0 ± 1.87
- ABC_C_Subscale_4 Hyperactivity ([2]; high dose, baseline): 9.4 ± 10.74
- ABC_C_Subscale_5 Inappropriate Speech ([2]; high dose, baseline): 5.6 ± 4.56
- ABC_C_Subscale_1 Irritability ([2]; high dose, chronic): 7.2 ± 5.36
- ABC_C_Subscale_2 Lethargy ([2]; high dose, chronic): 1.8 ± 1.48
- ABC_C_Subscale_3 Stereotypy ([2]; high dose, chronic): 3.4 ± 0.55
- ABC_C_Subscale_4 Hyperactivity ([2]; high dose, chronic): 7.0 ± 9.06
- ABC_C_Subscale_5 Inappropriate Speech ([2]; high dose, chronic): 4.4 ± 3.78
- ABC_C_Subscale_1 Irritability ([2]; low dose, baseline): 7.6 ± 7.44
- ABC_C_Subscale_2 Lethargy ([2]; low dose, baseline): 3.6 ± 2.97
- ABC_C_Subscale_3 Stereotypy ([2]; low dose, baseline): 3.8 ± 2.28
- ABC_C_Subscale_4 Hyperactivity ([2]; low dose, baseline): 7.8 ± 7.16
- ABC_C_Subscale_5 Inappropriate Speech ([2]; low dose, baseline): 5.4 ± 4.16
- ABC_C_Subscale_1 Irritability ([2]; low dose, chronic): 7.4 ± 8.02
- ABC_C_Subscale_2 Lethargy ([2]; low dose, chronic): 4.6 ± 2.70
- ABC_C_Subscale_3 Stereotypy ([2]; low dose, chronic): 4.6 ± 3.05
- ABC_C_Subscale_4 Hyperactivity ([2]; low dose, chronic): 7.2 ± 8.07
- ABC_C_Subscale_5 Inappropriate Speech ([2]; low dose, chronic): 4.6 ± 3.29
- WJ auditory attention [3]: trending increase
- RBANS list learning scores, trend ([4]; all eligible subjects, low dose): might improve
- performance on RBANS ([4]; high dose): dose limiting effect
- RBANS_LL change ([4]; low dose, chronic, nondetectable FMRP subjects): all positive trended
- memory as measured by the RBANS assay ([4]; low dose, males): improved memory
- RBANS LL score increase, low dose compared to high dose ([4]; subgroup): e Low dose had greater score increase (benefit) than high dose, separating groups.
- RBANS list learning, difference of least squares means, Estimate: Baseline - Low [4, 7]: −2.75
- change of RBANS LL from baseline ([4]; subgroup, high dose): c No change from baseline with high dose (direction is toward worsening, −2)
- increase (benefit) of RBANS LL compared to placebo ([4]; subgroup, low dose): d Low dose demonstrated increase of nearly 4 (benefit) compared to placebo
- increase (benefit) of RBANS LL from baseline ([4]; subgroup, low dose): b Low dose in this subgroup demonstrated an increase (benefit) of +2.75 of RBANS LL from baseline
- RBANS-LL score ([4]; high dose, acute (after the first dosage)): 10.4 ± 7.40
- RBANS-LL score ([4]; high dose, baseline (before intake)): 14.8 ± 8.32
- RBANS-LL score ([4]; high dose, chronic (post 2-week daily dosage)): 12.2 ± 6.83
- RBANS-LL score ([4]; low dose, acute (after the first dosage)): 13.2 ± 3.11
- RBANS-LL score ([4]; low dose, baseline (before intake)): 10.6 ± 5.22
- RBANS-LL score ([4]; low dose, chronic (post 2-week daily dosage)): 14.6 ± 6.80
- EEG relative band power: alpha2 [5, 8]: local distant small clusters
- EEG relative band power: beta [5, 8]: elevated broadly in the central and parietal regions
- EEG relative band power: delta [5, 8]: local distant small clusters
- EEG relative band power: alpha2 [5, 9]: central frontal power decrease
- EEG relative band power: beta [5, 9]: elevates a broad region in the central and parietal regions
- EEG relative band power: gamma1 [5, 9]: elevated electrodes in the right frontal region
- EEG relative band power: beta [5, 10]: isolated electrodes in the parietal and occipital areas elevated
- EEG relative band power: gamma [5, 10]: isolated electrodes in the parietal and occipital areas elevated
- EEG relative band power: theta [5, 10]: decreased in the posterior area
- EEG relative band power: beta [5, 11]: electrodes in the parietal and occipital areas elevated
- EEG relative band power: gamma [5, 11]: electrodes in the parietal and occipital areas elevated
- EEG relative band power: theta [5, 11]: decrease in the central area
- EEG relative band power: beta [5, 12]: electrodes in the parietal and occipital areas elevated
- EEG relative band power: gamma [5, 12]: electrodes in the parietal and occipital areas elevated
- EEG relative band power: theta [5, 12]: decrease in the central area
- EEG relative band power: beta ([5]; Placebo vs Low dose, acute visit, FMRP undetectable subjects (n = 5)): limited numbers of significantly effected electrodes
- EEG relative band power: beta [5, 13]: limited numbers of significantly effected electrodes
- EEG relative band power: theta [5, 13]: limited numbers of significantly effected electrodes
- EEG relative band power: alpha [5, 14]: limited numbers of significantly effected electrodes
- EEG relative band power: beta [5, 14]: limited numbers of significantly effected electrodes
- EEG relative band power: beta [5, 15]: elevates beta power
- EEG relative band power: theta [5, 15]: reduces theta band power
- EEG relative band power: beta [5, 16]: increases beta and gamma band in the parietal region
- EEG relative band power: gamma [5, 16]: increases beta and gamma band in the parietal region
- EEG relative band power: theta [5, 16]: reduces theta band
- EEG relative band power: alpha [5, 17]: retain consistent
- EEG relative band power: beta [5, 17]: increases beta and gamma bands in the parietal
- EEG relative band power: theta [5, 17]: reduces theta band
- EEG relative band power: beta ([5]; high dose relative to low dose, acute, all patients): elevate in multiple clusters
- EEG relative band power: alpha2 [5, 18]: decreased power cluster in the right central region
- EEG relative band power: beta [5, 18]: elevate in multiple clusters
- EEG relative band power: beta [5, 19]: elevate in multiple clusters
- EEG relative band power: delta (left frontal cluster) [5, 19]: reduced delta band power
- EEG relative band power: alpha2 (frontal) [5, 20]: decrease
- EEG relative band power: beta [5, 20]: scattered elevated spots
- EEG relative band power: delta [5, 20]: scattered elevated spots
- EEG relative band power: gamma [5, 20]: scattered elevated spots
- EEG relative band power: alpha2 (frontal area) [5, 21]: decrease in relative power
- EEG relative band power: delta [5, 21]: electrode in left central area elevated
- EEG relative band power: gamma sub-bands [5, 21]: No significant change
- EEG relative band power: alpha2 (temporal side) [5, 22]: decrease in relative power
- EEG relative band power: beta (temporal side) [5, 22]: decrease in relative power
- EEG relative band power: gamma bands [5, 22]: same occipital electrode elevated
- EEG power (beta band) ([5]; low dose vs placebo, chronic, female (detectable FMRP)): does not effect
- EEG beta power [5, 23]: elevates beta power
- EEG gamma 1 power (E31) [5, 23]: elevates gamma 1 power
- EEG theta band power [5, 23]: reduces theta band power
- EEG band power: gamma bands ([5]; low dose vs placebo, chronic, male subjects, parietal): increases beta and gamma bands in the parietal
- EEG gamma 1 power (E31) ([5]; low dose vs placebo, chronic, nondetectable FMRP group): elevates gamma 1 power
- EEG gamma 1 power ([5]; low dose, chronic, female subjects): does not grow gamma 1 power
- gamma waves (EEG) ([5]; low dose, male patients having undetectable peripheral FMRP): decreased gamma waves
